Laboratory results from patent US7893260B2, “Substituted quinazolin-4-one compounds for antagonizing TRPV3 function” (priority 2005, dated 2011).

Experiments:
human TRPV3 = molecular target: T1, human TRPV3 (Homo sapiens, UniProt Q8NET8); assay: Whole-cell patch clamp, cells expressing human TRPV3; format: cell-based; conditions: human TRPV3 IC50 converted to mass concentration
T1 construct: expressed in transfected cells; host or cells: HEK293/TREx (Invitrogen), tetracycline-inducible
T1 sequence (Q8NET8 1-790): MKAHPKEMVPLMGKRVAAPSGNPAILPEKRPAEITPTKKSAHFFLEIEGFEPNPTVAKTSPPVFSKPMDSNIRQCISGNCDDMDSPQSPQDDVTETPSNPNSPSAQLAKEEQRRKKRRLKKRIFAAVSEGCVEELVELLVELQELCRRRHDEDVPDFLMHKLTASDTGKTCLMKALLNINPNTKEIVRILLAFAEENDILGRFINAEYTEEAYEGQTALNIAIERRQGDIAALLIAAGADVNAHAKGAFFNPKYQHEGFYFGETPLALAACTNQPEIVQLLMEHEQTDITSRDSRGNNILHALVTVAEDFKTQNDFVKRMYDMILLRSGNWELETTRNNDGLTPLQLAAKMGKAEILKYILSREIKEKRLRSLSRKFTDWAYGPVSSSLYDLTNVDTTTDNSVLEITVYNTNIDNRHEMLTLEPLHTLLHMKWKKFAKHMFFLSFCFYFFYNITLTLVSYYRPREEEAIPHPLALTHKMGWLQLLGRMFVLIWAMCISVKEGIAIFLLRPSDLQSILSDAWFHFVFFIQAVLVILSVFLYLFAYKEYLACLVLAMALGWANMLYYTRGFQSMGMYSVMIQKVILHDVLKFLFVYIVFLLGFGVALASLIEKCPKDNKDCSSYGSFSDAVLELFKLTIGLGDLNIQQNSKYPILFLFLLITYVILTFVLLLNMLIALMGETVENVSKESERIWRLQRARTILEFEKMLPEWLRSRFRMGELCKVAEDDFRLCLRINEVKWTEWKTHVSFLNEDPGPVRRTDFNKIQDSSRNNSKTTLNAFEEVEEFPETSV
From the text: (§1) Whole-cell patch clamp experiments permit the detection of currents through the TRPV3 channel in the cell line described above. A glass electrode is brought into contact with a single cell and the membrane is then ruptured, permitting control of the voltage of the cell membrane and measurement of currents flowing across the membrane using the amplifier attached to the electrode. A perfusion system permits control of the extracellular solution, including the addition of blockers and activators of the current. The current can be activated by heating this solution to 28° C. or warmer or by addition of 20 μM 2-APB to the solution.
(§2) TRPV3 cells were induced 20-48 hours, removed from growth plates, and replated at low density (to attain good single-cell physical separation) on glass coverslips for measurement. In some cases, cells were grown in low density overnight on glass coverslips. Patch clamp recordings were made in the whole-cell mode with a holding potential of −40 mV. […] Currents elicited were quantified at −80 mV and +80 mV. The internal solution consisted of 140 mM cesium aspartate, 10 mM EGTA, 2.27 mM MgCl2, 1.91 mM CaCl2 and 10 mM HEPES, pH to 7.2 with KOH; with 50 nM calculated free Ca^2+. […]
(§3) The plasma levels of a TRPV3 inhibitor (compound 82) were determined via HPLC/MS/MS following administration to male Sprague-Dawley rats.

[1] = Plasma levels / pharmacokinetics after IV or oral administration; format: in vivo, male Sprague-Dawley rats; conditions: PO suspension 50 mg/kg, rat
Procedure: as §3
To evaluate pharmacokinetic properties of this TRPV3 inhibitor, rats were administered a single intravenous (IV) bolus dose of […] or an oral dose of a suspension of 50 mg/kg. For intraveneous administration, the TRPV3 inhibitor solution was formulated in PBS/NaOH, pH 10.5, at a target concentration of 0.25 mg/mL. This solution was administered as a rapid bolus (2-3 seconds) at a dose volume of 4 mL/kg via the tail vein of conscious rats or via a jugular vein catheter in anesthetized rats. For oral administration, the TRPV3 inhibitor was formulated as a uniform suspension in CMC (carboxymethylcellulose) at a target concentration of 5 mg/mL, and administered by oral gavage at a dose volume of 10 mL/kg to conscious rats.

[2] = Plasma, brain and CSF levels after IP or PO administration; format: in vivo; conditions: 0.5, 1, 4 hours post IP 200 or 50 mg/kg or PO 200 mg/kg, rats
From the text: For each time point evaluated, plasma levels are depicted by the left-most bar, brain levels are depicted by the center bar, and CSF levels are depicted by the right-most bar. […] For each time point evaluated, plasma levels are depicted by the left-most bar, brain levels are depicted by the center bar, and CSF levels are depicted by the right-most bar. […] For each time point evaluated, plasma levels are depicted by the left-most bar, brain levels are depicted by the center bar, and CSF levels are depicted by the right-most bar.

rat TRPV3 = molecular target: T2, rat TRPV3 (Rattus norvegicus, UniProt Q4QYD9); assay: Whole-cell patch clamp, cells expressing rat TRPV3; format: cell-based; conditions: rat TRPV3 IC50 converted to mass concentration
T2 construct: expressed in transfected cells
T2 sequence (Q4QYD9 1-791): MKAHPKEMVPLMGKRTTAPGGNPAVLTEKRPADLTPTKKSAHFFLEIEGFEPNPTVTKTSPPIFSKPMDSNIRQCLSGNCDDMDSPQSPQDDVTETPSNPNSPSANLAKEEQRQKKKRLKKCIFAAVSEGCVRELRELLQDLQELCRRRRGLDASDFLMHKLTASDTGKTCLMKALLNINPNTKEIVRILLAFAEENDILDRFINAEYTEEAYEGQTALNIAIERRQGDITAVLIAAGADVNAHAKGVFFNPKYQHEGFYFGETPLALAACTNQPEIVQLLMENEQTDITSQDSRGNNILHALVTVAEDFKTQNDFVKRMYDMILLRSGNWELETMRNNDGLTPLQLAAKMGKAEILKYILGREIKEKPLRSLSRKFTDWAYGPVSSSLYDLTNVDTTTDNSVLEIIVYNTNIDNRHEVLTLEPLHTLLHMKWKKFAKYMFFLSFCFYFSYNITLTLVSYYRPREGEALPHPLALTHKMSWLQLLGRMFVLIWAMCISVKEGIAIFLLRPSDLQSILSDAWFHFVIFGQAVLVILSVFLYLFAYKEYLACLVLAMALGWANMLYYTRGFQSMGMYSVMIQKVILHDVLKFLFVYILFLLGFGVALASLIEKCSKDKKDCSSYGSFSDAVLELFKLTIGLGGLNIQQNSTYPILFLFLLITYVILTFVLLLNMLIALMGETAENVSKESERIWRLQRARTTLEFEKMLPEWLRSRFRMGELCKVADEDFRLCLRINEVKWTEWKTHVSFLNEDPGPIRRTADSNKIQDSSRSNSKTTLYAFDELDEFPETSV
From the text: as §1, §2, §3

[3] = test system: carrageenan model of acute inflammatory pain; assay: Carrageenan model of acute inflammatory pain (thermal hyperalgesia, Hargreaves); format: in vivo, rats
Procedure: As outlined above, the carrageenan model is a model of acute inflammatory pain. As such, it may be used to evaluate effectiveness in relieving pain caused by inflammation, for example, pain due to arthritis.
Briefly, naive rats were pretested for sensitivity to a heat stimulus using the Hargreaves apparatus. The next day, 100 μL of λ-carrageenan was injected into the plantar surface of the right hindpaw approximately 4.5 hours before testing. 30-60 minutes before testing the rats were injected intraperitoneally with vehicle or drug (to evaluate the efficacy of a TRPV3 inhibitor administered IP) or were administered vehicle or drug orally (PO; to evaluate the efficacy of a TRPV3 inhibitor administered orally).
In this study, the drug administered was either a TRPV3 inhibitor (compound 82), the TRPV1 inhibitor, A-425619 (produced by Abbott; maximal efficacious dose, 40 mg/kg IP; El Kouhen et al, 2005, J Pharmacol Exp Ther 314: 400-4091; Honore et al., 2005, J Pharmacol Exp Ther 314: 410-421), or the non-steroidal anti-inflammatory diclofenac. Following administration of both carrageenan and drug or vehicle control, the thermal escape latency was measured. Data are expressed as a percentage comparing the recorded Paw Withdrawal Latencies (PWLs) in seconds to that pre-carrageenan administration.

Structure (SMILES): COc1cccc(/C=C/c2nc3ccccc3c(=O)n2-c2ccccc2)c1O [compound 82]
- effective concentration corresponding to IC50 (human TRPV3): approximately 94 ng/mL
- estimated half-life (T1/2) [1]: one
- detection in plasma, brain and CSF (central penetration) [2]: detected not only in plasma, but also in brain and CSF
- effective concentration corresponding to IC50 (rat TRPV3): ~0.105 µg/mL
- reduction of thermal hyperalgesia in carrageenan model ([3]; IP, 50 mg/kg): effective
- reduction of thermal hyperalgesia in carrageenan model ([3]; IP, 200 mg/kg): effective
- reduction of thermal hyperalgesia in carrageenan model ([3]; oral, 200 mg/kg): effective
- reducing pain in the carrageenan model ([3]; rats, thermal hyperalgesia): efficacious in reducing pain
